Settings: Gas, Spherical cavity resonance method

C=C(F)C(F)(F)F [2,3,3,3-tetrafluoro-1-propene]
Settings	speed of sound [m/s]
278.15 K, 25.44 kPa	148.09
278.15 K, 50.62 kPa	147.25
278.15 K, 75.68 kPa	146.39
278.15 K, 101 kPa	145.51
278.15 K, 201.3 kPa	141.89
278.15 K, 300.48 kPa	138.02
293.15 K, 25.29 kPa	151.93
293.15 K, 50.99 kPa	151.19
293.15 K, 75.57 kPa	150.47
293.15 K, 101.23 kPa	149.72
293.15 K, 201.08 kPa	146.67
293.15 K, 292.42 kPa	143.72
293.15 K, 401.24 kPa	139.99
308.15 K, 25.26 kPa	155.68
308.15 K, 50.39 kPa	155.05
308.15 K, 75.5 kPa	154.42
308.15 K, 100.64 kPa	153.79
308.15 K, 200.87 kPa	151.18
308.15 K, 300.85 kPa	148.47
308.15 K, 398.92 kPa	145.68
323.15 K, 25.34 kPa	159.31
323.15 K, 50.23 kPa	158.76
323.15 K, 75.47 kPa	158.2
323.15 K, 100.59 kPa	157.64
323.15 K, 200.87 kPa	155.39
323.15 K, 300.93 kPa	153.07
323.15 K, 401.34 kPa	150.66
338.15 K, 25.37 kPa	162.84
338.15 K, 50.45 kPa	162.36
338.15 K, 75.5 kPa	161.87
338.15 K, 100.77 kPa	161.37
338.15 K, 200.63 kPa	159.42
338.15 K, 301.18 kPa	157.41
338.15 K, 407.01 kPa	155.23
353.15 K, 25.67 kPa	166.32
353.15 K, 50.67 kPa	165.86
353.15 K, 75.38 kPa	165.44
353.15 K, 100.55 kPa	165.01
353.15 K, 200.64 kPa	163.29
353.15 K, 299.53 kPa	161.57
353.15 K, 401.3 kPa	159.76

From the NIST ThermoML archive (doi:10.1007/s10765-010-0885-7)
